Test systems include LOX IMVI melanoma; OVCAR-5 ovarian; HOP-18 NSCLC; OVCAR-8 ovarian; SF-268 CNS; OVCAR-4 ovarian; A498 renal; U251 CNS; MOLT-4 leukemia; KM12 colon; EKVX NSCLC; SK-MEL-5 melanoma; SK-OV-3 ovarian.
Common to all, as to test: inhibition of tumour cell growth, NCI panel, 48 h

The source of these data is PubChem BioAssay (NCI).

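These data come from cells grown in 96-well plates and exposed to compound for 48 hours at five concentrations. GI50 = concentration required for 50% inhibition of growth. TGI denotes the concentration required for complete inhibition of growth.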

As to `C=C1C(=O)OC2/C=C(\CO)C3OC3C3OC3(C)CC(OC(=O)/C(=C/C)COC(C)=O)C12` (stereo not given), the TGI in the assay with LOX IMVI melanoma stood at 3.24 µM; in the assay with OVCAR-5 ovarian, 28.7 µM; in the assay with HOP-18 NSCLC it was 21.6 µM; in the assay on OVCAR-8 ovarian, 6.22 µM; with SF-268 CNS, 27.1 µM; in the assay on OVCAR-4 ovarian it was 24.1 µM. For the same molecule, the TGI is 27.7 µM in the assay on A498 renal; 16.8 µM in the assay with U251 CNS; more than 100 µM in the assay on MOLT-4 leukemia; 19 µM with KM12 colon; 9.58 µM in the assay with EKVX NSCLC; 20.1 µM in the assay on SK-MEL-5 melanoma. Also, in the assay with SK-OV-3 ovarian, the TGI amounted to 45.7 µM.
Regarding `O=C1Nc2ccccc2C1(O)Cc1ccccn1` (stereo not given), the TGI with LOX IMVI melanoma, in the assay with OVCAR-5 ovarian, in the assay with OVCAR-8 ovarian, with SF-268 CNS, in the assay with OVCAR-4 ovarian and with A498 renal was more than 100 µM in each case. Also, the TGI in the assay with U251 CNS, in the assay on KM12 colon, in the assay with EKVX NSCLC, with SK-MEL-5 melanoma and in the assay on SK-OV-3 ovarian was more than 100 µM each time.
On to `CSc1nc2c(ncn2C2OC(CO)C(O)C(O)C2O)c(=O)n1C` (stereo not given), for which the TGI in the assay with LOX IMVI melanoma, in the assay with OVCAR-5 ovarian, with HOP-18 NSCLC, in the assay on OVCAR-8 ovarian, in the assay on SF-268 CNS and in the assay on OVCAR-4 ovarian was more than 100 µM each time. The TGI in the assay with A498 renal, in the assay with U251 CNS, in the assay on MOLT-4 leukemia, with KM12 colon, in the assay with EKVX NSCLC and in the assay on SK-MEL-5 melanoma was more than 100 µM in each case. The TGI in the assay with SK-OV-3 ovarian was more than 100 µM.
For the molecule `COc1ccc2[nH]c(=O)cc(C)c2c1[N+](=O)[O-]`, the TGI in the assay with LOX IMVI melanoma, in the assay with OVCAR-5 ovarian, in the assay on OVCAR-8 ovarian, with SF-268 CNS, in the assay on OVCAR-4 ovarian and in the assay on A498 renal was more than 100 µM in each case. Also, the TGI with U251 CNS, in the assay with MOLT-4 leukemia, in the assay on KM12 colon, in the assay on EKVX NSCLC, with SK-MEL-5 melanoma and with SK-OV-3 ovarian was more than 100 µM in each case.
Take `C=CCn1c(C)nc2cc(Nc3nc(N4CCCC4)nc4nc[nH]c34)ccc21`: the GI50 in the assay with LOX IMVI melanoma, in the assay with OVCAR-5 ovarian, in the assay on A498 renal, with MOLT-4 leukemia and with SK-MEL-5 melanoma was more than 100 µM each time. For the same molecule, the TGI with LOX IMVI melanoma, in the assay on OVCAR-5 ovarian, in the assay with A498 renal, in the assay with MOLT-4 leukemia and in the assay with SK-MEL-5 melanoma was more than 100 µM each time.
For `O=c1c2cc([N+](=O)[O-])ccc2[nH]n1Cc1ccccc1Cl`, the TGI in the assay on LOX IMVI melanoma, in the assay with OVCAR-5 ovarian, in the assay on OVCAR-8 ovarian, in the assay with SF-268 CNS, in the assay with OVCAR-4 ovarian and with A498 renal was more than 100 µM in each case. Besides, the TGI in the assay with U251 CNS, in the assay with MOLT-4 leukemia, in the assay on KM12 colon, with EKVX NSCLC and in the assay with SK-MEL-5 melanoma was more than 100 µM throughout.
`Nc1nc2cc(COc3ccc(C(=O)O)cc3)ccc2nc1-c1ccccc1`: the TGI in the assay with LOX IMVI melanoma, in the assay with OVCAR-5 ovarian, in the assay with SF-268 CNS, in the assay with OVCAR-4 ovarian, in the assay on U251 CNS and in the assay with MOLT-4 leukemia was more than 10 µM throughout. The TGI in the assay with KM12 colon, in the assay on EKVX NSCLC, in the assay on SK-MEL-5 melanoma and with SK-OV-3 ovarian was more than 10 µM throughout.
Turning to `Cc1c2cnccc2c(C)c2c1c1ccccc1n2CCCCCCCl`, the TGI is more than 50 µM in the assay on LOX IMVI melanoma; more than 50 µM with OVCAR-5 ovarian; more than 7.93 µM with HOP-18 NSCLC; more than 50 µM in the assay with OVCAR-8 ovarian; more than 50 µM in the assay on SF-268 CNS; more than 29.3 µM in the assay with OVCAR-4 ovarian. Moreover, the TGI with A498 renal, in the assay on U251 CNS, with MOLT-4 leukemia, in the assay on KM12 colon, in the assay with EKVX NSCLC and in the assay on SK-MEL-5 melanoma was more than 50 µM in each case. In the assay on SK-OV-3 ovarian, this molecule displayed a TGI of more than 50 µM.
Take `CC1=CC2=C(C=O)C(=O)[C@](C)(O)[C@@H](O)C2=CO1`: the TGI with LOX IMVI melanoma is more than 74.3 µM; in the assay with OVCAR-5 ovarian it was more than 100 µM; in the assay with HOP-18 NSCLC it was more than 92.7 µM; in the assay with OVCAR-8 ovarian it was more than 100 µM; in the assay on SF-268 CNS, more than 69.4 µM; in the assay on OVCAR-4 ovarian it was more than 100 µM. In addition, the TGI in the assay with A498 renal is 73.5 µM; in the assay with U251 CNS, more than 76.8 µM; with MOLT-4 leukemia, 41.3 µM; in the assay with KM12 colon, more than 100 µM; in the assay with EKVX NSCLC it was more than 100 µM; in the assay on SK-MEL-5 melanoma, 68.1 µM. The molecule further showed a TGI in the assay with SK-OV-3 ovarian of 76.3 µM.
As for `CS(C)(=O)=Nn1c(=O)n2n(c1=O)[C@H]1CC[C@@H]2C1`, the TGI in the assay on LOX IMVI melanoma, with OVCAR-5 ovarian, in the assay with OVCAR-8 ovarian, with SF-268 CNS, in the assay with A498 renal and with U251 CNS was more than 100 µM in each case. Moreover, the TGI with MOLT-4 leukemia, with KM12 colon, in the assay with EKVX NSCLC, in the assay on SK-MEL-5 melanoma and in the assay on SK-OV-3 ovarian was more than 100 µM throughout.
For the molecule `COc1cc(C2c3cc4c(cc3[C@@H](Nc3cnc5ccccc5c3)C3COC(=O)[C@H]23)OCO4)cc(OC)c1O` (stereo not given in full), the TGI in the assay with OVCAR-5 ovarian was 2.25 µM; in the assay on HOP-18 NSCLC, 2.65 µM; in the assay with OVCAR-8 ovarian, 5 µM; in the assay on SF-268 CNS it was 3.9 µM; in the assay with OVCAR-4 ovarian it was 4.43 µM; with A498 renal, 1.38 µM. The TGI in the assay with U251 CNS came out at 0.6 µM; in the assay on KM12 colon, 2.67 µM; in the assay on EKVX NSCLC, 9.09 µM; in the assay on SK-MEL-5 melanoma it was 1.78 µM; in the assay with SK-OV-3 ovarian it was 6.18 µM.
As to `O=C(N/N=C/c1cc(Cl)cc(Cl)c1[O-])c1ccccc1O.O=C(N/N=C/c1cc(Cl)cc(Cl)c1[O-])c1ccccc1O.[Mn+2]`, the TGI in the assay on LOX IMVI melanoma is 14.1 µM; in the assay on OVCAR-5 ovarian, 17.4 µM; with OVCAR-8 ovarian, 2.3 µM; with SF-268 CNS, 11.5 µM; in the assay with OVCAR-4 ovarian it was 1.58 µM; with U251 CNS it was 5.52 µM. Moreover, the TGI in the assay on MOLT-4 leukemia was determined as 14.8 µM; in the assay on KM12 colon, 15.9 µM; in the assay on EKVX NSCLC it was 11.2 µM; with SK-MEL-5 melanoma it was 2.63 µM; in the assay with SK-OV-3 ovarian, 3.58 µM. The GI50 with MOLT-4 leukemia was 0.289 µM; with KM12 colon it was 0.448 µM; in the assay on EKVX NSCLC it was 0.861 µM.
Regarding `O=C1Sc2sc(=S)sc2SC1c1ccccc1` (stereo not given), the TGI is more than 82.6 µM in the assay with LOX IMVI melanoma; more than 100 µM in the assay with OVCAR-5 ovarian; more than 100 µM in the assay on HOP-18 NSCLC; more than 100 µM in the assay on OVCAR-8 ovarian; more than 100 µM in the assay with SF-268 CNS; more than 31.6 µM in the assay on OVCAR-4 ovarian. For the same molecule, the TGI in the assay with A498 renal, with U251 CNS, in the assay with MOLT-4 leukemia, with KM12 colon, in the assay with EKVX NSCLC and with SK-MEL-5 melanoma was more than 100 µM throughout. In the assay on SK-OV-3 ovarian, this molecule registered a TGI of more than 100 µM.
